Experimental data: the NIST ThermoML archive (doi:10.1016/j.jct.2016.03.038)

Test: mn = molality of the nth substance listed, in mol/kg
Conditions: Liquid, isochoric method

C [methane] + CCCCCC
Conditions	mass density [kg/m3]
273.1 K, 2850 kPa, m1 = 2.157	655
273.1 K, 3620 kPa, m1 = 2.812	648
273.1 K, 4700 kPa, m1 = 3.805	638
273.1 K, 5670 kPa, m1 = 4.686	628
273.1 K, 6920 kPa, m1 = 6.031	616
273.1 K, 7900 kPa, m1 = 7.195	604
273.1 K, 9190 kPa, m1 = 8.724	596
283.15 K, 2500 kPa, m1 = 1.717	650
283.15 K, 3570 kPa, m1 = 2.568	640
283.15 K, 4740 kPa, m1 = 3.533	632
283.15 K, 5840 kPa, m1 = 4.499	620
283.15 K, 7010 kPa, m1 = 5.615	610
283.15 K, 8560 kPa, m1 = 7.345	594
293.15 K, 2360 kPa, m1 = 1.513	643
293.15 K, 3340 kPa, m1 = 2.229	635
293.15 K, 4410 kPa, m1 = 3.042	627
293.15 K, 5620 kPa, m1 = 4.008	615
293.15 K, 6860 kPa, m1 = 5.098	604
293.15 K, 8400 kPa, m1 = 6.638	590
